Assay: Bioavailability and expected plasma concentration of subcutaneously administered C-peptide
Assay type: in vivo, human
Details: low dose 500 nmoL/24 h given 4 times daily
Experimental: The dose selection is based on data from previous studies, in which C-peptide has been replaced for 3 months (600 nmoL/24 h) and an effect on albumin excretion and sensory nerve conduction velocity has been observed (Johansson et al., 2000; Ekberg et al., 2003). In order to maintain adequate levels of C-peptide for as many hours of the day as possible, the daily dose was divided into four doses, injected subcutaneously using Disetronic Pen 25, and administered in the morning, at lunch, at dinner, and at bedtime. […] To determine if C-peptide at a higher dose has an optimal effect, a 3 times higher dose (1,500 nmoL/24 h) was also administered.
The low-dose regimen was expected to give a mean physiological plasma concentration of ˜1 nmoL/L during the 24 h period. The high dose regimen was expected to result in concentrations ˜3 times those of the low dose regimen. The actual exposure is described in section above on “C-peptide concentrations”. […] The sampling of C-peptide in plasma at visits 2 and 4 coincided with the clinical visit and the time between the most recent administration of the trial drug and sampling varied between patients. Thereby, the results of C-peptide concentrations in plasma became less suitable for pharmacokinetic evaluations.

## CC(C)C[C@H](NC(=O)[C@H](C)NC(=O)[C@H](CC(C)C)NC(=O)[C@@H]1CCCN1C(=O)[C@H](CCC(N)=O)NC(=O)[C@H](CC(C)C)NC(=O)[C@H](CO)NC(=O)CNC(=O)[C@H](C)NC(=O)CNC(=O)[C@@H]1CCCN1C(=O)CNC(=O)CNC(=O)CNC(=O)[C@H](CC(C)C)NC(=O)[C@H](CCC(=O)O)NC(=O)[C@@H](NC(=O)[C@H](CCC(N)=O)NC(=O)CNC(=O)[C@@H](NC(=O)[C@H](CCC(N)=O)NC(=O)[C@H](CC(C)C)NC(=O)[C@H](CC(=O)O)NC(=O)[C@H](CCC(=O)O)NC(=O)[C@H](C)NC(=O)[C@@H](N)CCC(=O)O)C(C)C)C(C)C)C(=O)N[C@@H](CCC(=O)O)C(=O)NCC(=O)N[C@@H](CO)C(=O)N[C@@H](CC(C)C)C(=O)N[C@@H](CCC(N)=O)C(=O)O [C-peptide, Recombinant human C-peptide]
  Expected physiological mean plasma concentration: ~1 nmoL/L
